The results in this text go back to patent US4276289A, “Antitumor glycosides, their preparation and use” (Farmitalia Carlo Erba, S.p.A., priority 1979, dated 1981).

Molecules are shown by their SMILES. In brackets after ≈: the same amount, converted by molar mass. Like-named read-outs stand apart in the source and are kept apart here.

One series concerns HeLa cells. Put plainly: in vitro test against HeLa cells. In kind it is cell-based. The settings on record: Homo sapiens, read-out: ID50 on HeLa Cells. On the procedure:
The biological activity of the compounds according to the invention was tested in vitro against HeLa cells in comparison with daunorubicin and doxorubicin.
Compound ID50 on HeLa Cells (ng/ml)

The next series relates to P 388 leukemia. Put plainly: in vivo activity against P 388 leukemia (treatment i.p. on day 1 after tumor implantation).

For `COc1cccc2c1C(=O)c1c(O)c3c(c(O)c1C2=O)C[C@@](O)(C(C)=O)C[C@@H]3O[C@H]1C[C@@H](N)[C@@H](OC)[C@H](C)O1` [3',4'-diepi-4'-O-methyl daunorubicin, 3',4'-diepi-4'-O-methyl-daunorubicin], the IC50 in the series with HeLa cells (in vitro, HeLa cells) came to 0.036 µg/mL (≈ 0.0665 µM). In addition, the “LTS (long term survivors)” value in the series on P 388 leukemia (6.6 mg/kg) was 0/8; with P 388 leukemia (10 mg/kg), 0/8; in the series with P 388 leukemia (15 mg/kg), 0/18; in the series on P 388 leukemia (22 mg/kg), 0/10; in the series with P 388 leukemia (33 mg/kg) it was 1/10. The T/C % was 145% with P 388 leukemia (6.6 mg/kg), 154% in the series on P 388 leukemia (10 mg/kg), 222% with P 388 leukemia (22 mg/kg) and 231% in the series on P 388 leukemia (33 mg/kg). Moreover, the Toxicity with P 388 leukemia (6.6 mg/kg) was 0/8; in the series on P 388 leukemia (10 mg/kg), 0/8; with P 388 leukemia (15 mg/kg), 0/18; in the series with P 388 leukemia (22 mg/kg), 0/10; in the series on P 388 leukemia (33 mg/kg) it was 2/10.
Regarding `COc1cccc2c1C(=O)c1c(O)c3c(c(O)c1C2=O)C[C@@](O)(C(=O)CO)C[C@@H]3O[C@H]1C[C@@H](N)[C@@H](OC)[C@H](C)O1` [3',4'-diepi-4'-O-methyl doxorubicin, 3',4'-diepi-4'-O-methyl-doxorubicin], in the series with HeLa cells (in vitro, HeLa cells), the IC50 stood at 0.0059 µg/mL (≈ 0.0106 µM). The “LTS (long term survivors)” value in the series on P 388 leukemia (1.9 mg/kg), with P 388 leukemia (2.9 mg/kg), with P 388 leukemia (4.4 mg/kg) and with P 388 leukemia (6.6 mg/kg) was 0/10 each time. Also, the T/C % turned out to be 180% in the series on P 388 leukemia (1.9 mg/kg), 200% in the series with P 388 leukemia (2.9 mg/kg), 109% with P 388 leukemia (4.4 mg/kg) and 76% in the series with P 388 leukemia (6.6 mg/kg). For the same compound, the Toxicity in the series with P 388 leukemia (1.9 mg/kg) is given as 0/10; in the series with P 388 leukemia (2.9 mg/kg), 2/10; with P 388 leukemia (4.4 mg/kg), 10/10; with P 388 leukemia (6.6 mg/kg) it was 10/10.
With `COc1cccc2c1C(=O)c1c(O)c3c(c(O)c1C2=O)C[C@@](O)(C(C)=O)C[C@@H]3O[C@H]1C[C@H](N)[C@H](O)[C@H](C)O1` [Daunorubicin, reference compound], the IC50 with HeLa cells (HeLa) is 0.014 µg/mL (≈ 0.0265 µM). The results for the “LTS (long term survivors)” value in the series with P 388 leukemia (2.9 mg/kg), in the series with P 388 leukemia (4.4 mg/kg) and in the series on P 388 leukemia (6.6 mg/kg) were 0/18, 0/18 and 0/8, respectively. Further, the Toxicity in the series with P 388 leukemia (2.9 mg/kg) is 0/18; with P 388 leukemia (4.4 mg/kg), 0/18; in the series on P 388 leukemia (6.6 mg/kg) it was 3/8. The compound also gave a T/C % in the series on P 388 leukemia (6.6 mg/kg) of 163%.
With `COc1cccc2c1C(=O)c1c(O)c3c(c(O)c1C2=O)C[C@@](O)(C(=O)CO)C[C@@H]3O[C@H]1C[C@H](N)[C@H](O)[C@H](C)O1` [Doxorubicin, reference compound], the IC50 in the series on HeLa cells (HeLa) was 0.0095 µg/mL (≈ 0.0175 µM). In addition, in the series on P 388 leukemia (4.4 mg/kg), the “LTS (long term survivors)” value is on record as 2/10, the T/C % is given as 209% and the Toxicity is listed as 0/8. In addition, in the series on P 388 leukemia (6.6 mg/kg), the “LTS (long term survivors)” value is 0/10, the T/C % is 233% and the Toxicity is listed as 0/8.
